Consider 28 compounds from patent US7622469B2, “2,4-diamino-1,3,5-triazine derivatives” (Hamari Chemicals, Ltd., priority 2002, dated 2009).

Assay in all cases: Antibacterial activity test (MIC)
What all share (conditions): Mueller-Hinton Broth, 37° C., 20 to 24 hours

One test concerns MRSA 97-115. It is filed as cell-based, methicillin-resistant Staphylococcus aureus. The protocol: (§1) Regarding compounds obtained in respective Working Examples, in order to investigate antibacterial activity, minimal inhibitory concentration (MIC) was determined according to a standard method of Japanese Society of Chemotherapy.
(§2) As a test bacterium, nine kinds of S. aureus 209PJC, MRSA 97-115, MRSA KM 97-53, MRSA KM97-108, VRE 49, E. coli NIHJ JC-2, P. aeruginosa PAO-1, P. aeruginosa No. 12, P. aeruginosa KM97-5 were used and, as a medium, Mueller-Hinton Broth (DIFCO) was used. One platinum loop of a test bacterium was inoculated into 20 ml of a medium, and static culture was carried out at 37° C. for 16 to 20 hours, and then each bacterium species was diluted with a sterilized physiological saline to 10^5/ml, which was used as a test bacterium solution.
(§3) Then, each compound was dissolved in methanol, subjected to ½ stepwise dilution with a medium to prepare a medium for measuring sensitivity, and each 2 ml was dispensed into a test tube. A compound concentration in a medium was adjusted to 100 μg/ml and its 2^n-fold (n=−10 to 1).
(§4) Numerical values in Tables represent MIC expressed in μg/ml unit.

The test system of another test is E. coli NIHJ JC-2. It is filed as cell-based. The protocol:
as §1, §2, §3, §4

A further test relates to P. aeruginosa PAO-1. It is filed as cell-based. How it is done:
as §1, §2, §3, §4

In the next test the test system is S. aureus 209PJC. It is filed as cell-based. The protocol: as §1, §2, §3, §4

Each structure is given as a SMILES string. Values after ≈ are worked out from the molar mass of the structure shown.

`CCCCCCCCC1N=C(N)N=C(N)N1c1cc(C(C)(C)C)ccc1OC.Cl` (stereo not shown) [compound 24]: the “minimal inhibitory concentration (MIC)” value with MRSA 97-115 turned out to be 1.6 µg/mL; in the test with E. coli NIHJ JC-2 it was 50 µg/mL; with P. aeruginosa PAO-1, 50 µg/mL; in the test on S. aureus 209PJC it was 1.6 µg/mL.
Consider `CCCCCCCCC1N=C(N)N=C(N)N1c1ccc(OC(F)(F)F)cc1.Cl` (stereo not shown) [compound 26], for which the “minimal inhibitory concentration (MIC)” value in the test with MRSA 97-115 was determined as 6.3 µg/mL; in the test with E. coli NIHJ JC-2, 50 µg/mL; with P. aeruginosa PAO-1 it was 50 µg/mL; in the test with S. aureus 209PJC it was 3.1 µg/mL.
Turning to `CCCCCCCCC1N=C(N)NC(Nc2ccc(OC(F)(F)F)cc2)=N1.Cl` (stereo not shown) [compound 27], the “minimal inhibitory concentration (MIC)” value in the test on MRSA 97-115 is 1.6 µg/mL; in the test with E. coli NIHJ JC-2, 25 µg/mL; with P. aeruginosa PAO-1, over 100 µg/mL; in the test on S. aureus 209PJC, 1.6 µg/mL.
Consider `CCCCCCCCCC1N=C(N)N=C(N)N1c1ccc(OC(F)(F)F)cc1.Cl` (stereo not shown) [compound 28], for which the “minimal inhibitory concentration (MIC)” value with MRSA 97-115 worked out at 3.1 µg/mL; with E. coli NIHJ JC-2 it was 25 µg/mL; in the test on P. aeruginosa PAO-1 it was 50 µg/mL; in the test with S. aureus 209PJC, 1.6 µg/mL.
On the same counts, the results for `CCCCCCCCCC1N=C(N)NC(Nc2ccc(OC(F)(F)F)cc2)=N1.Cl` (stereo not shown) [compound 29] are 1.6 µg/mL, over 100 µg/mL, over 100 µg/mL and 0.8 µg/mL.
The matching figures for `CCCCCCCCCC1N=C(N)N=C(N)N1c1ccc(F)c(F)c1F.Cl` (stereo not shown) [compound 30]: 3.1 µg/mL, 25 µg/mL, 50 µg/mL and 1.6 µg/mL.
In the case of `CCCCCCCCCCC1N=C(N)NC(Nc2ccc(F)c(F)c2F)=N1.Cl` (stereo not shown) [compound 32], the “minimal inhibitory concentration (MIC)” value turned out to be 1.6 µg/mL with MRSA 97-115, 25 µg/mL in the test on E. coli NIHJ JC-2, 100 µg/mL with P. aeruginosa PAO-1 and 0.8 µg/mL in the test with S. aureus 209PJC.
The matching figures for `CCCCCCCCCCC1N=C(N)N=C(N)N1c1ccc(F)cc1F.Cl` (stereo not shown) [compound 33]: 3.1 µg/mL, 25 µg/mL, 50 µg/mL and 1.6 µg/mL.
Consider `CCCCCCCCCCC1N=C(N)NC(Nc2ccc(F)cc2F)=N1` (stereo not shown) [compound 34], for which the “minimal inhibitory concentration (MIC)” value with MRSA 97-115 amounted to 1.6 µg/mL (≈ 4.38 µM); with E. coli NIHJ JC-2, 50 µg/mL (≈ 137 µM); with P. aeruginosa PAO-1, 100 µg/mL (≈ 274 µM); with S. aureus 209PJC, 1.6 µg/mL (≈ 4.38 µM).
For `CCCCCCCCCCNC1=NC(C)(C)N=C(NCc2ccc(OC)cc2)N1.O=C(O)CC(=O)O` [compound 39], the “minimal inhibitory concentration (MIC)” value with MRSA 97-115 came out at 0.8 µg/mL; in the test with E. coli NIHJ JC-2, 25 µg/mL; with P. aeruginosa PAO-1 it was 50 µg/mL; with S. aureus 209PJC, 0.4 µg/mL.
On the same counts, the results for `CCCCCCCCCCNC1=NC(C)(C)N=C(NCc2ccc(OC)cc2)N1.O=C(O)C(=O)O` [compound 40] are 0.8 µg/mL, 25 µg/mL, 25 µg/mL and 0.4 µg/mL.
On the same counts, the results for `CCCCCCCCCCNC1=NC(C)(C)N=C(NCc2ccccc2)N1.O=C(O)C(=O)O` [compound 42] are 1.6 µg/mL, 12.5 µg/mL, 12.5 µg/mL and 0.8 µg/mL.
The matching figures for `CCCCCCCCCNC1=NC(C)(C)N=C(NCc2ccccc2)N1.O=C(O)O` [compound 47]: 0.8 µg/mL, 12.5 µg/mL, 12.5 µg/mL and 0.4 µg/mL.
With `CCCCCCCCCCCNC1=NC(C)(C)N=C(NCc2ccccc2)N1.O=C(O)C(=O)O` [compound 51], the “minimal inhibitory concentration (MIC)” value was 0.8 µg/mL with MRSA 97-115, 50 µg/mL in the test on E. coli NIHJ JC-2, 100 µg/mL with P. aeruginosa PAO-1 and 0.4 µg/mL in the test on S. aureus 209PJC.
On the same counts, the results for `CC(=O)O.CCCCCCCCNC1=NC(C)(C)N=C(NCc2ccccc2)N1` [compound 52] are 1.6 µg/mL, 12.5 µg/mL, 25 µg/mL and 0.8 µg/mL.
The matching figures for `CCCCCCCNC1=NC(CC)(CC)N=C(NCc2ccccc2)N1.Cl` [compound 53]: 3.1 µg/mL, 50 µg/mL, 100 µg/mL and 1.6 µg/mL.
Turning to `CC(=O)O.CCCCCCCNC1=NC2(CCCC2)N=C(NCc2ccccc2)N1` [compound 54], the “minimal inhibitory concentration (MIC)” value in the test on MRSA 97-115 is 1.6 µg/mL; in the test on E. coli NIHJ JC-2 it was 50 µg/mL; in the test with P. aeruginosa PAO-1, 100 µg/mL; with S. aureus 209PJC, 0.8 µg/mL.
`CCCCCCCCCCNC1=NC(C)(C)N=C(NCCc2ccccc2)N1.O=C(O)CC(=O)O` [compound 55]: the “minimal inhibitory concentration (MIC)” value worked out at 0.8 µg/mL in the test on MRSA 97-115, 12.5 µg/mL in the test with E. coli NIHJ JC-2, 50 µg/mL with P. aeruginosa PAO-1 and 0.4 µg/mL in the test with S. aureus 209PJC.
The matching figures for `CC(=O)O.CCCCCCCCNC1=NC(C)(C)N=C(NCCc2ccccc2)N1` [compound 57]: 1.6 µg/mL, 25 µg/mL, 25 µg/mL and 0.8 µg/mL.
As to `CC(=O)O.CCCCCCCNC1=NC(C)(C)N=C(NCc2ccc(C)cc2)N1` [compound 59], the “minimal inhibitory concentration (MIC)” value in the test on MRSA 97-115 amounted to 1.6 µg/mL; in the test with E. coli NIHJ JC-2 it was 25 µg/mL; in the test with P. aeruginosa PAO-1 it was 50 µg/mL; in the test on S. aureus 209PJC, 0.8 µg/mL.
On the same counts, the results for `CCCCCCCCCCNC1=NC(C)(C)N=C(NCc2ccc(C(=O)O)cc2)N1.Cl` [compound 60] are 6.3 µg/mL, over 100 µg/mL, over 100 µg/mL and 3.1 µg/mL.
The matching figures for `CCCCCCCCCNC1=NC(C)(C)N(c2ccccc2)C(N)=N1.Cl` [compound 61]: 6.3 µg/mL, over 100 µg/mL, over 100 µg/mL and 6.3 µg/mL.
On the same counts, the results for `CC(=O)O.CCCCCCCCCNC1=NC(C)(C)N=C(Nc2ccccc2)N1` [compound 62] are 0.8 µg/mL, 12.5 µg/mL, 12.5 µg/mL and 0.8 µg/mL.
As to `CCCCCCCCNC1=NC(C)(C)N(c2cccc3ccccc23)C(N)=N1.Cl` [compound 63], the “minimal inhibitory concentration (MIC)” value in the test on MRSA 97-115 is 6.3 µg/mL; in the test with E. coli NIHJ JC-2, 100 µg/mL; with P. aeruginosa PAO-1, 100 µg/mL; in the test on S. aureus 209PJC, 6.3 µg/mL.
On to `CCCCCCCCNC1=NC(C)(C)N=C(Nc2cccc3ccccc23)N1` [compound 64], for which the “minimal inhibitory concentration (MIC)” value is 0.8 µg/mL (≈ 2.11 µM) in the test on MRSA 97-115, 25 µg/mL (≈ 65.9 µM) in the test with E. coli NIHJ JC-2, 25 µg/mL (≈ 65.9 µM) with P. aeruginosa PAO-1 and 0.8 µg/mL (≈ 2.11 µM) in the test with S. aureus 209PJC.
Turning to `CC(=O)O.CCCCCCCCNC1=NC(C)(C)N=C(NCCCCCCCC)N1` [compound 66], the “minimal inhibitory concentration (MIC)” value with MRSA 97-115 is 1.6 µg/mL; in the test on E. coli NIHJ JC-2, 100 µg/mL; in the test on P. aeruginosa PAO-1, over 100 µg/mL; in the test with S. aureus 209PJC, 0.8 µg/mL.
The matching figures for `CC(=O)O.CCCCCCCCNC1=NC(C)(C)N=C(NCCCCCCC)N1` [compound 67]: 1.6 µg/mL, 100 µg/mL, 100 µg/mL and 0.8 µg/mL.
The matching figures for `CC(=O)O.CCCCCCCNC1=NC(C)(C)N=C(NCCCCCC)N1` [compound 70]: 1.6 µg/mL, 25 µg/mL, 25 µg/mL and 0.8 µg/mL.
